# Test results taken from US7902254B1, “Method for treating conditions mediated by PPAR using macelignan” (Newtree Co., Ltd., priority 2005, dated 2011).
# Tests used:
# human PPARα = target: T1, human PPARα (Homo sapiens, UniProt Q07869); assay: PPARα activation, PPRE-controlled luciferase reporter in transfected COS-7 cells; format: cell-based; conditions: 25 μM, 24 hours, control 0.01% DMSO
# T1 construct: expressed in transfected cells; host or cells: COS-7 monkey kidney cells (ATCC CRL-1651)
# T1 sequence (Q07869 192-468 limits assumed): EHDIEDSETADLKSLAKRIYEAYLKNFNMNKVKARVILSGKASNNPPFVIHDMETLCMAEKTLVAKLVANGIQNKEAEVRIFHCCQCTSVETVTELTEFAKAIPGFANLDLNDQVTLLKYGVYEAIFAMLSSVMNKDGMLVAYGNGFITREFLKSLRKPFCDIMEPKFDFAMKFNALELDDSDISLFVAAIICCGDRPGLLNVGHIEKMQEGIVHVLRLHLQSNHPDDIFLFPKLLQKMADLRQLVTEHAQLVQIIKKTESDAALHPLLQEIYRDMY
# Method: To investigate whether macelignan acts as a ligand of PPAR or not, it was tested according to known method (Cell, 68: 879-887, 1992; J. Biol. Chem., 272: 25252-25259, 1997) using a plasmid expressing PPAR and a vector having PPRE-controlled luciferase genes.
# Activation of luciferase expression was measured by transfecting COS-7 monkey kidney cells (ATCC CRL-1651) with the PPARα plasmid and pFR-luciferase vector (Stratagene, USA), and then by treating the transfected cells with macelignan isolated from Example 1 for 24 hours. The PPARα plasmid was obtained by isolating polynucleotide encoding the amino acid sequence of amino acids […] (i.e. PPARα ligand-bound domain of the total amino acid sequence of human PPARα (Genbank Acession No. S74349)) with the primers of SEQ ID NO: 1 ([…]) and SEQ ID NO: 2 (TGGGGTACCTGGCTGAT) by RT-PCR. Then, the polynucleotide was cloned between the restriction enzyme sites of BamHI and KpnI of pFA vector (Stratagene, USA). Herein, mRNA used as the template in RT-PCR was obtained by separating the total RNA in cultured Hep G2 (ATCC HB-8065) human liver cells by using TRIZOL (Invitrogen, USA). RT-PCR was performed by synthesizing cDNA using reverse transcriptase at 42° C. for 60 minutes, and 30 cycles of 1 minute at 95° C., 30 seconds at 54° C. and 2 minutes at 72° C. using Taq polymerase. At this time, the test groups treated with different concentrations (1, 5, 10 and 25 μM) of macelignan according to the present invention were compared to the control treated with 0.01% DMSO, and to the groups treated with different concentrations (1, 5, 10 and 25 μM) of Wy-14643 (Sigma, USA), a compound known as a PPARα ligand.
# [1] = tested on: obesity/diabetes mice (db/db mice); assay: Anti-diabetes effect in obesity/diabetes mouse model; format: in vivo; conditions: 10 mg/kg oral; for OGTT blood sugar: 12th day
# Description: A mouse (db/db mouse; The Jackson Laboratory, USA) used in the present invention as an obesity/diabetes model is deficient in leptin genes and cannot control its appetite, and thus takes an excessive amount of food continuously. […] Thus, it can be a typical model of obesity and metabolic diseases. Additionally, it has a higher blood sugar level and can be a typical model of non-insulin-dependent diabetes mellitus. To investigate the effect of preventing and treating diabetes of macelignan, seven mice of 10 week-aged obesity/diabetes mice (db/db mice) were used per test group. To the test groups, macelignan suspended in 0.25% carboxymethyl cellulose was orally administered with the dose of 5 mg/kg (body weight), 10 mg/kg (body weight) and 25 mg/kg (body weight), once per day at a predetermined time, for 14 days. As a control, 0.25% carboxymethyl cellulose was orally administered alone to normal mice in the same dose as administered to the test group. As another control, 0.25% carboxymethyl cellulose was orally administered alone to obesity/diabetes mice in the same dose as administered to the test group. As still another control, 10 mg/kg (body weight) of troglitazone was orally administered. Blood sugar levels of the obesity/diabetes mice were determined from six days before the administration, once per three days. On the 12th day after the oral administration, the test group and the controls were subjected to the Oral Glucose Tolerance Test (OGTT). For this test, obesity/diabetes mice in the test group and the controls were fasted for at least 18 hours, glucose was orally administered to the mice in a dose of 3 g/kg (body weight), and then variations in the blood sugar were measured at 0 minutes, 30 minutes, 60 minutes and 120 minutes after the glucose administration. Additionally, on the 14th day of the oral administration, the final blood sugar level, insulin content in blood (mouse insulin ELISA Kit, Linco Research, o. EZRMI-BK, USA) and adiponectin content in blood (Adiponectin Quantikine ELISA Kit, R&D systems, No. MRP300, USA) were analyzed.
# [2] = tested on: obesity/diabetes mice (db/db mice); assay: Effect upon hyperlipidemia and cardiovascular diseases in obesity/diabetes mouse model; format: in vivo; conditions: 10 mg/kg oral, 14 days
# Method: To investigate effects of macelignan upon the treatment of hyperlipidemia and cardiovascular diseases, seven mice of 10 week-aged obesity/diabetes mice (db/db mice) were used per test group. To the test groups, macelignan suspended in 0.25% carboxymethyl cellulose was orally administered in an administration dose of 5 mg/kg (body weight), 10 mg/kg (body weight) and 25 mg/kg (body weight), once per day at a predetermined time, for 14 days. As a control, 0.25% carboxymethyl cellulose was orally administered alone to normal mice in the same dose as administered to the test group. As another control, 0.25% carboxymethyl cellulose was orally administered alone to obesity/diabetes mice in the same dose as administered to the test group. As still another control, 10 mg/kg (body weight) of troglitazone was orally administered. Fourteen days after the administration, triglyceride concentration in blood (triglyceride measuring kit, Wako, Japan), free fatty acid concentration in blood (free fatty acid measuring kit, Wako, Japan), total cholesterol content in blood (ASAN T-CHO-Lq Reagents, Asan Pharmaceutical Co. Ltd., Korea), HDL-cholesterol content in blood (ASAN HDL-Cholesterol, Asan Pharmaceutical Co. Ltd., Korea), IL-6 content in blood (IL-6 Quantikine ELISA, R&D systems, USA) and TNF-α content in blood were measured for the test groups and the controls.
luciferase activity higher than the control (PPARα) (human PPARα),Structure (SMILES),OGTT blood sugar ([1]; 0 min. after glucose 3 g/kg) [mg/dL],"Adiponectin concentration in blood ([1]; 14th day, db/db mice) [ng/mL]","Insulin concentration in blood ([1]; 14th day, db/db mice) [ng/mL]",OGTT blood sugar ([1]; 30 mins. after glucose 3 g/kg) [mg/dL],OGTT blood sugar ([1]; 60 mins. after glucose 3 g/kg) [mg/dL],OGTT blood sugar ([1]; 120 mins. after glucose 3 g/kg) [mg/dL],Free fatty acid in blood [2] [mEq/l],HDL-cholesterol in blood [2] [mg/dL],IL-6 in blood [2] [pg/mL],TNF-α in blood [2] [pg/mL],Total cholesterol in blood [2] [mg/dL],Triglyceride in blood [2] [mg/dL]
about 16 times,"Cc1cccc(Nc2cc(Cl)nc(SCC(=O)O)n2)c1C [Wy-14643, reference compound]",–,–,–,–,–,–,–,–,–,–,–,–
–,"Cc1c(C)c2c(c(C)c1O)CCC(C)(COc1ccc(CC3SC(=O)NC3=O)cc1)O2 (stereo not shown) [troglitazone, reference compound]",303.43 ± 37.83,6682.33 ± 250.05,18.57 ± 5.88,610.57 ± 76.21,523.70 ± 17.10,456.41 ± 54.69,1.22 ± 0.27,43.9 ± 6.34,10.24 ± 3.60,30.49 ± 13.18,134 ± 34.9,112.57 ± 57.47
